The values below come from publication PMC5398486, “Cheminformatics-aided discovery of small-molecule Protein-Protein Interaction (PPI) dual inhibitors of Tumor Necrosis Factor (TNF) and Receptor Activator of NF-κB Ligand (RANKL)” (PLoS Computational Biology, 2017).

Values after ≈ are worked out from the molar mass of the structure shown. Read-outs that look alike come from different tables or passages of the source. Marks after values point to notes of the source that are not given here.

Series [1] in a line: Solubility with PEG3350 as co-solvent. The format is physicochemical. The conditions noted are these: PEG3350 2.5% v/v. The text has this: PEG3350 was used as co-solvent in order to enhance inhibitors solubility and thus eliminate the possibility of aggregates formation. | column: Solubility (μM)
The test system of the next series is L929 cells. Also noted: method as in PMID 25160057. The note with it: compound alone, read-out: L929 LC50; cited from earlier work.
The conditions of series [2]: PEG3350 0% v/v; cited from earlier work.
A further series has as its target T1, RANKL (Homo sapiens, UniProt O14788).
T1 sequence (O14788 143-317): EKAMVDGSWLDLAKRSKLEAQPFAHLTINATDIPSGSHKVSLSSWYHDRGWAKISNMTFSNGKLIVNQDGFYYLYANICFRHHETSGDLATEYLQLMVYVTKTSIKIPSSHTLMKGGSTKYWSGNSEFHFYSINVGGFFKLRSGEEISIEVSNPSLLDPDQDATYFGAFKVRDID
Description: Fluorescence-based binding affinity assay, RANKL. How it is done: For use in the binding assays, recombinant TNF and RANKL were expressed and purified as previously described.[84–86] Fluorescence intensity was measure with a Synergy H1 Multi-Mode Reader (BioTek) in 96-well microplates (black) at 25°C. […] During preparation of the solutions the buffer was firstly added to all wells followed by the ligand solution and finally the protein was added. All solutions were mixed by pipetting and equilibrated for 1h at 25°C before measurement. […] Experiments were performed for TNF in 10 mM citrate-phosphate (pH 6.5) and for RANKL in 25 mM Tris–HCl buffer, 100 mM NaCl (pH 7.5); both buffers were supplemented with PEG3350 at the concentrations indicated in the respective figures. Kd values were calculated as mean ± SEM from three independent experiments.
Differences in fluorescence intensity between the protein/ligand complex and free protein (or free ligand) were analysed as previously described in [Papaneophytou et al. (2013) ACS Med Chem Lett. 4: 137-141] (Eq. S6) in order to determine the dissociation constant (Kd) of the various protein-ligand systems.
In Eq. (S6) Fobs is the observed fluorescence intensity; FBG is the fluorescence background signal; MFLF [picture] and PF are the molar fluorescence and concentration of free protein, respectively; FR is the fluorescence ratio of bound protein (or bound ligand in the case of a fluorescence ligand); LT and PT are the total concentrations of ligand and protein, respectively. A detailed analysis of the development of the fluorescence ligand-binding assay is given in [Papaneophytou et al. (2013) ACS Med Chem Lett. 4: 137-141].

Series [3] deals with the molecule itself. Description: cross-linking; 100 ng recombinant human TNF or RANKL, with or without inhibitors (30 min, room temperature), cross-linked with 4.8 mM BS3 for 30 min at room temperature; SDS-PAGE and western blot.

Turning to `Cc1cc2occ(CN(C)CCN(C)Cc3cn(-c4cccc(C(F)(F)F)c4)c4ccccc34)c(=O)c2cc1C` [SPD304, InChI = 1S/C32H32F3N3O2/c1-21-14-28-30(15-22(21)2)40-20-24(31(28)39)18-37(4)13-12-36(3)17-23-19-38(29-11-6-5-10-27(23)29)26-9-7-8-25(16–26)32(33,34)35/h5-11,14–16,19-20H,12–13,17-18H2,1-4H3, reference compound], the results for the solubility in series [1] and in series [2] were 71 µM (≈ 38.9 µg/mL) and 10^b μM, respectively. In addition, the CC50 in the series on L929 cells was 7.5 ± 0.2 µM. Moreover, the Kd at RANKL (RANKL 0.5 μM, PEG3350 2.5%, 25 mM Tri-HCl, 100 mM NaCl pH 7.5, read-out: Binding affinity (Kd), RANKL) came out at 14.2 ± 0.68 µM; at RANKL (RANKL 0.5 μM, PEG3350 5%, 25 mM Tri-HCl, 100 mM NaCl pH 7.5, read-out: Binding affinity (Kd), RANKL), 13.8 ± 0.73 µM; on RANKL (fluorescence assay, 25°C, 25 mM Tris-HCl, 100 mM NaCl, pH 7.5, 5% PEG3350, read-out: Kd (RANKL complexes)), 13.8 ± 0.7 µM.

B1: recombinant human RANKL (Receptor activator of nuclear factor kappa-B ligand) (ligand, UniProt O14788 140-317, looked up)
chain: IRAEKAMVDGSWLDLAKRSKLEAQPFAHLTINATDIPSGSHKVSLSSWYHDRGWAKISNMTFSNGKLIVNQDGFYYLYANICFRHHETSGDLATEYLQLMVYVTKTSIKIPSSHTLMKGGSTKYWSGNSEFHFYSINVGGFFKLRSGEEISIEVSNPSLLDPDQDATYFGAFKVRDID
notes: source: bought: Peprotech
On to B1, for which the “stoichiometry N” value in series [3] turned out to be 3.
